Reference: patent US20240336566A1, “CRYSTALLINE FORMS OF A COMPOUND FOR THE TARGETED DEGRADATION OF THE ANDROGEN RECEPTOR” (Arvinas Operations, Inc., priority 2023, published 2024)

Test: Primary salt screen: XRPD post temperature cycling/evaporation, post drying and post storage at 40° C./75% RH
Assay type: physicochemical
Settings: Compound A + 1.05 eq. counterion (= label); for XRPD results post 40° C./75% RH: stored ca. 20 hours; for XRPD results post drying: dried under vacuum at 40° C.
Experimental: • 30 mg samples of Compound A were weighed out into 2 mL screw cap sample vials for 96 experiments. To these, 200 μL of the appropriate solvent system was added to dissolve the material or form a slurry. See Table 16 for the solvent systems selected for the primary salt screen.
• 1.05 eq. of solid counterions were weighed into six separate vials each and 1 molar stock solutions were prepared for liquid counterions in 5 mL of THF. See Table 17 for selected counterions and mass/volume needed for 1.05 eq. additions. • 100 μL of the appropriate solvent was added to the solid counterions.
The solution/slurry of counterion was added to the solution/slurry of the free base material.
• The samples were placed in an incubator shaker to temperature cycle between ambient and 40° C. over 4 hour cycles. • After ca. 72 hours of temperature cycling, observations were noted, see Table 19.
• Where slurries were obtained, the solids were isolated via centrifugation. Solids and gels were analyzed by XRPD.
Any samples that were clear solutions after temperature cycling were left to evaporate at ambient conditions. See Table 20 for observations made after evaporation. Solids obtained through evaporation were analyzed by XRPD.
• The samples obtained from temperature cycling were dried under vacuum at 40° C. for ca. 20 hours while the samples obtained from evaporation were dried under vacuum at 40° C. for ca. 4 hours. […]

XRPD results post 40° C./75% RH (DMSO:Water (50:50 % v/v)) | XRPD results post temperature cycling and evaporation (1,4-Dioxane) | XRPD results post drying (1,4-Dioxane) | XRPD results post 40° C./75% RH (1,4-Dioxane) | XRPD results post temperature cycling and evaporation (DCM) | XRPD results post drying (DCM) | XRPD results post 40° C./75% RH (DCM) | XRPD results post temperature cycling and evaporation (DMSO:Water (50:50 % v/v)) | XRPD results post temperature cycling and evaporation (THF) | XRPD results post temperature cycling and evaporation (THF:Water (98:2 % v/v)) | XRPD results post drying (THF) | XRPD results post 40° C./75% RH (THF) | XRPD results post temperature cycling and evaporation (DCM:Methanol (50:50 % v/v)) | XRPD results post drying (DCM:Methanol (50:50 % v/v)) | XRPD results post 40° C./75% RH (DCM:Methanol (50:50 % v/v)) | XRPD results post drying (DMSO:Water (50:50 % v/v)) | XRPD results post drying (THF:Water (98:2 % v/v)) | XRPD results post 40° C./75% RH (THF:Water (98:2 % v/v)) | Structure (SMILES)
A t | A t | A t | A t | A e | A e | A e | A t | A e | A e | A e | A e | A e | A e | A e | A t | A e | A e | O=C(O)CC(O)(CC(=O)O)C(=O)O [Citric acid]
 | S t * | A t d | A t | A e | A e | A e |  | A e |  | A e | A e | A e | A e | A e |  |  |  | O=C(O)/C=C/C(=O)O [Fumaric acid]
A t | S t * |  | A t h | C e | A e d | A e | A t | A e | A e | A e | A e | A e | A e | A e | A t | A e | A e | O=C(O)/C=C\C(=O)O [Maleic acid]
 |  |  |  | A e | A e | A e | A t | A e | A e | A e | A e | A e | A e | A e |  | A e | A e | O=C(O)CC(=O)O [Malonic acid]
A t | A t | A t | A t | A e | A e | A e | A t |  | A e |  |  |  |  |  | A t | A e | A e | CS(=O)(=O)O [Methanesulfonic acid]

More lines, now with the values behind:

Structure (SMILES) | XRPD results post 40° C./75% RH (DMSO:Water (50:50 % v/v)) | XRPD results post temperature cycling and evaporation (1,4-Dioxane) | XRPD results post drying (1,4-Dioxane) | XRPD results post 40° C./75% RH (1,4-Dioxane) | XRPD results post temperature cycling and evaporation (DCM) | XRPD results post drying (DCM) | XRPD results post 40° C./75% RH (DCM) | XRPD results post temperature cycling and evaporation (DMSO:Water (50:50 % v/v)) | XRPD results post temperature cycling and evaporation (THF) | XRPD results post temperature cycling and evaporation (THF:Water (98:2 % v/v)) | XRPD results post drying (THF) | XRPD results post 40° C./75% RH (THF) | XRPD results post temperature cycling and evaporation (DCM:Methanol (50:50 % v/v)) | XRPD results post drying (DCM:Methanol (50:50 % v/v)) | XRPD results post 40° C./75% RH (DCM:Methanol (50:50 % v/v)) | XRPD results post drying (DMSO:Water (50:50 % v/v)) | XRPD results post drying (THF:Water (98:2 % v/v)) | XRPD results post 40° C./75% RH (THF:Water (98:2 % v/v))
CC(=O)O [Acetic acid] | A t h |  |  |  |  |  |  |  |  |  |  |  |  |  |  |  |  | 
O=S(=O)(O)c1ccccc1 [Benzenesulfonic acid] | A e h | A t | A t | A t | A e | A e | A e | A e | A t | S e | A t | A t |  |  |  |  |  | 
O=C(O)c1ccccc1 [Benzoic acid] |  |  |  |  | A e | A e | A e |  |  |  |  |  |  |  |  |  |  | 
Cl [Hydrochloric acid] |  |  |  |  | t S |  |  |  |  |  |  |  | t S |  |  |  |  | 
